Experimental data as given in patent US20040037860A1, “Free nicotine based cosmetic composition and uses thereof” (COLUMBUS, priority 2001, published 2004).

Experiments:
[1] = system: localized gynoid lipodystrophy of the thighs and of the buttocks (LGL); conditions: small dose, topical
Method: The applicant carried out a comparative trial intended to evaluate the efficacy of the composition of the invention, as a local topical application, in patients with gynoid lipodystrophy of the thighs and of the buttocks, in comparison with a placebo, considered as a control group. Concomitantly, the effects of the composition on the softness and firmness of the skin were assessed.
It is a randomized comparative double blind monocenter trial comprising two groups of treatment of localized gynoid lipodystrophy of the thighs and of the buttocks (LGL):
This trial lasted for 9 weeks and comprised a one-week inclusion phase, followed by an 8-week treatment phase. It was carried out in patients suffering from LGL.
Evaluation carried out during the inclusion visit, at D28, and at the final visit for the principal and secondary criteria.
1.-Measurement of the adipose panicle by ultrasound scan, measured with the aid of a wide probe, by looking at the great trochanter of each femur.
The probe was placed on a tripod, at the constant level of the ground for each subject. The measurement was carried out after acquiring the last possible image by detaching the probe from the skin plane.

[2] = no significant difference in weight versus placebo at D28 or D56

CN1CCCC1c1cccnc1 (centres unmarked) [Nicotine, nicotine]
reduction of the thickness of localized gynoid lipodystrophy (cellulite), on average [1]: 8.9% | overall slimming effect [2]: no overall slimming effect
